Among the data in PubChem BioAssay (NCI) are TGI and GI50 values, retold here.

Values joined by “and” are separate entries in the source; they are usually repeats but may differ in a detail not shown here. Equal values may be shown once.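 Briefly, cells in 96-well plates were exposed to five compound concentrations for 48 h, and endpoints were estimated by linear interpolation. GI50 = concentration required for 50% inhibition of growth. The concentration for full growth arrest is given as TGI.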

What all share (assay): NCI-60 cell line screen, 48 h
Experiment [1] has as its system HL-60(TB) leukemia.
The subject of experiment [2] is NCI-H522 lung.
Experiment [3] concerns SK-OV-3 ovarian.
Experiment [4] has as its system SK-MEL-28 melanoma.
For experiment [5], the system named is OVCAR-5 ovarian.
Experiment [6] relates to NCI-H23 lung.
Experiment [7] deals with SF-268 CNS.
Experiment [8] relates to SF-539 CNS.
Experiment [9] concerns 786-0 renal.
The subject of experiment [10] is K-562 leukemia.

In the case of `O=C(CCl)Nc1cc(Cl)c(Cl)cc1Cl`, the TGI was 7.74 µM in [1]; 2.02 µM in experiment [2]; over 10 µM in experiment [3]; 4.04 µM in experiment [4]; 3.72 µM in experiment [5]; 3.28 µM in experiment [6]. Also, the TGI in experiment [7] is 4.62 µM; in [8] it was 3.04 µM; in experiment [9] it was 2.87 µM; in [10], over 10 µM.
`C(=Nc1cnc2ccccc2c1)c1ccc2ccccc2n1`: the TGI in experiment [1], in experiment [2], in [3], in experiment [4], in experiment [5] and in experiment [6] was over 100 µM throughout. Further, the TGI in experiment [7], in experiment [8], in experiment [9] and in experiment [10] was over 100 µM in each case.
In the case of `C[C@@H](NC(=O)c1ncnc(N)c1Cl)c1ncc(C(=O)Nc2cc(C(F)(F)F)c(Cl)cn2)s1`, the GI50 in experiment [1] is 3.3 µM; in experiment [2], 13.5 µM; in experiment [3] it was 31.2 µM; in [4], 0.696 µM; in experiment [5], 5.88 µM; in experiment [6], 10.8 µM. Besides, the GI50 in [7] was 26.8 µM; in experiment [8], 20.3 µM; in [9], 36.3 µM; in experiment [10], 0.462 µM. The TGI in experiment [1] was 29 µM; in experiment [2], 34.3 µM; in experiment [3], over 93.5 µM; in [4], 15.8 µM; in experiment [5], over 90.5 µM; in [6], 57.9 µM. The TGI in experiment [7] is over 71.6 µM; in experiment [8], over 78.4 µM; in experiment [9], over 100 µM; in [10], over 45.9 µM.
`C/C(=N/O)c1ccc2c(c1)/C(=N/O)c1ccccc1-2`: the GI50 is 15.8 µM in experiment [1]; 17.9 µM in [2]; 35.7 µM in experiment [3]; 17.9 µM in experiment [4]; 22.8 µM in experiment [5]; 18.3 µM in experiment [6]. Also, the GI50 in experiment [7] is 32.2 µM; in experiment [8], 21.6 µM; in experiment [9], 20.5 µM; in [10], 15.8 µM. Besides, the TGI in experiment [1] is 35.7 µM; in experiment [2] it was 35.2 µM; in experiment [3] it was over 100 µM; in experiment [4], 39.9 µM; in experiment [5] it was 53.5 µM; in experiment [6], 34.2 µM. Moreover, the TGI in [7] is over 100 µM; in experiment [8], 50 µM; in experiment [9], 38.5 µM; in [10] it was 32.4 µM.
With `O=C1c2ccccc2C(=O)c2c1ccc1c(=O)n(-c3ccccc3C(F)(F)F)nnc21`, the GI50 is 1.76 µM in experiment [1]; 1.81 µM in experiment [2]; 3.52 µM in experiment [3]; 5.79 µM in [4]; 2.19 µM in experiment [5]; 1.34 µM in experiment [6]. The GI50 in experiment [7] is 2.74 µM; in experiment [8], 2.57 µM; in experiment [9], 4.09 µM; in experiment [10] it was 1.76 µM. The TGI was 5.48 µM in experiment [1]; 5.71 µM in [2]; over 100 µM in experiment [3]; over 100 µM in experiment [4]; 6.01 µM in experiment [5]; 3.51 µM in experiment [6]. Further, the TGI in experiment [7] is over 100 µM; in [8], 8.49 µM; in [9], over 100 µM; in experiment [10], over 100 µM.
`O=C(/C=C/C(Cl)(Cl)Cl)Nc1ccc(Cl)cc1`: the TGI is 2.03 µM in experiment [1]; 1.43 µM in experiment [2]; 34.6 µM in [3]; 35.1 µM in experiment [4]; 27.5 µM in experiment [5]; 11.3 µM in experiment [6]. The results for the TGI in experiment [7], in experiment [8] and in experiment [9] were 9.82 µM, 3.97 µM and 2.96 µM, respectively.
Regarding `CCN(CC)CCN1C(=O)C2C3C(=O)CC(C)(CC3C)C2C1=O` (configuration not stated), the GI50 in [1], in experiment [2], in experiment [3], in experiment [5], in [6] and in experiment [7] was over 100 µM each time. The GI50 in experiment [8], in experiment [9] and in [10] was over 100 µM in each case. Also, the TGI in [1], in [2], in [3], in experiment [5], in experiment [6] and in experiment [7] was over 100 µM in each case. For the same compound, the TGI in [8], in [9] and in experiment [10] was over 100 µM each time.
Regarding `CN(C)C=NC1CCC(C(C)(C)C)CC1` (configuration not stated), the TGI in [1] turned out to be 33.2 µM; in experiment [2], 31.8 µM; in experiment [3], 44.8 µM; in experiment [4] it was 29.4 µM; in experiment [5] it was 37.2 µM; in experiment [6], 34.3 µM. In addition, the TGI in experiment [7] was 96 µM; in experiment [8], 31.8 µM; in [9] it was 33.3 µM; in experiment [10], 45.1 µM.
Take `CN(C)Cc1ccc(C(C)(C)C)cc1-c1cc(C(C)(C)C)ccc1CN(C)C`: the TGI in experiment [1], in experiment [2], in experiment [3], in experiment [4], in experiment [5] and in experiment [6] was over 100 µM throughout. Also, the TGI in experiment [7], in experiment [8], in experiment [9] and in experiment [10] was over 100 µM throughout.
For the compound `CC(C)(C)NC(=O)[C@H]1CC[C@H]2[C@@H]3CC[C@H]4NC(=O)C=C[C@]4(C)[C@H]3CC[C@]12C`, the GI50 in experiment [1] is 41.6 µM and > 100 µM; in [2], 23.2 µM and > 100 µM; in experiment [3] it was over 100 µM; in [4] it was over 100 µM; in experiment [5], over 100 µM; in experiment [6] it was over 100 µM. The GI50 is over 100 µM in experiment [7]; over 100 µM in experiment [8]; over 100 µM in experiment [9]; 53.5 µM and > 100 µM in experiment [10]. For the same compound, the TGI in experiment [1], in experiment [2], in [3], in experiment [4], in experiment [5] and in experiment [6] was over 100 µM in each case. Also, the TGI in experiment [7], in [8], in experiment [9] and in experiment [10] was over 100 µM in each case.
`CC1=C(C(=O)NCc2ccccc2)C(c2ccccc2C)C(C(=O)NCc2ccccc2)=C(C)N1`: the TGI in experiment [1] was 59.3 µM; in experiment [2], 66.2 µM; in [3], over 100 µM; in experiment [4] it was over 67.3 µM; in experiment [5] it was over 95.5 µM; in experiment [6], over 93.6 µM. The TGI is 57.6 µM in [7], 48.8 µM in experiment [8], 67 µM in [9] and over 100 µM in [10].
Turning to `COc1cc2c(cc1O)CN1CCC23C=C[C@@H](O)CC13` (some centres not stated), the TGI in experiment [1] was 38 µM; in experiment [2], over 100 µM; in experiment [3] it was over 100 µM; in [4], over 100 µM; in [5] it was over 100 µM; in [6], over 100 µM. In addition, the TGI in experiment [7], in experiment [9] and in experiment [10] was over 100 µM in each case.
Regarding `COc1ccc(Cl)cc1Nc1nc(C(F)(F)F)ccc1C(=O)N/N=C/c1cccnc1`, the GI50 was 1.95 µM in [1]; 2.47 µM in experiment [2]; 2.47 µM in experiment [3]; 3.95 µM in experiment [4]; 5.34 µM in [6]; 2.52 µM in experiment [7]. In addition, the GI50 in [8] was 5.12 µM; in experiment [9] it was 2.63 µM; in [10], 3.16 µM. The TGI in [1] was over 100 µM; in experiment [2] it was 74.7 µM; in experiment [3] it was over 100 µM; in [4], over 100 µM; in experiment [6], over 100 µM; in [7], 61.5 µM. Further, the TGI in experiment [8], in experiment [9] and in experiment [10] was over 100 µM each time.
Regarding `Cc1ccc(Cl)cc1NC(=O)c1cc2ccccc2cc1O`, the GI50 was 0.267 µM in experiment [1]; 0.231 µM in experiment [2]; 0.406 µM in experiment [3]; 0.992 µM in experiment [5]; 0.234 µM in [6]; 0.426 µM in experiment [7]. Moreover, the GI50 in experiment [8] is 0.356 µM; in [9], 0.507 µM; in [10], 0.365 µM. The TGI was 0.768 µM in experiment [1]; 0.719 µM in [2]; 2.95 µM in [3]; 10.7 µM in [5]; 0.707 µM in experiment [6]; over 32.6 µM in [7]. The values for the TGI in experiment [8], in experiment [9] and in experiment [10] were 1.82 µM, 1.94 µM and 10.1 µM, respectively.
In the case of `COc1ccccc1/C=C/C1=C(C)CCC(c2ccccc2OC)C1C` (configuration not stated), the GI50 was 0.262 µM in experiment [1]; 0.113 µM in experiment [2]; 0.382 µM in experiment [3]; 0.24 µM in experiment [4]; 0.403 µM in experiment [5]; 0.188 µM in experiment [6]. In addition, the GI50 in experiment [7] is 0.201 µM; in experiment [8], 0.0833 µM; in experiment [9], 0.196 µM. Further, the TGI is 0.603 µM in experiment [1]; over 100 µM in [3]; over 100 µM in [4]; over 68.2 µM in [5]; 13.6 µM in experiment [6]; over 73 µM in experiment [7]. Besides, the TGI in experiment [8] is 0.215 µM; in experiment [9], 2.51 µM.
For `COC(=O)C1(C)CC2C(C)(CCC3(C)C4=CC=C5C(=CC(=O)C(O)=C5C)C4(C)CCC23C)CC1O` (configuration not stated), the TGI in experiment [1] came out at 0.771 µM; in experiment [2], 0.54 µM; in [3], 4.13 µM; in experiment [4] it was 2.1 µM; in experiment [5], 3.32 µM; in experiment [7] it was 2.63 µM. Besides, the TGI in experiment [8] stood at 3.3 µM; in experiment [9], 0.477 µM.
Regarding `OCc1ccc(N2CCc3cc(F)ccc3C2)cc1Cl`, the GI50 is 1.64 µM in experiment [1]; 12.7 µM in experiment [2]; 3.85 µM in experiment [3]; 13.8 µM in [4]; 12.8 µM in [6]; 15.2 µM in experiment [7]. Also, the GI50 in experiment [8] was 16.1 µM; in experiment [9], 8.64 µM; in experiment [10], 0.125 µM. Besides, the TGI came out at 29.1 µM in experiment [1]; 25.9 µM in experiment [2]; 15.9 µM in [3]; 26.9 µM in experiment [4]; 30.2 µM in experiment [6]; 29.9 µM in experiment [7]. Besides, the TGI in experiment [8] came to 30.2 µM; in experiment [9], 22.7 µM; in [10], 17.2 µM.
Turning to `N#Cc1ccccc1C#C/C=C\C#CC#C/C=C\C#Cc1ccccc1C#N`, the GI50 was 4.12 µM in [1]; 3.15 µM in [2]; 28.6 µM in experiment [3]; 10.6 µM in [4]; 11.4 µM in experiment [5]; 3.14 µM in experiment [6]. Moreover, the GI50 in [7] was 12 µM; in experiment [8], 22.6 µM; in experiment [9], 16.6 µM. Further, the TGI in experiment [1] is 22.5 µM; in [2], 14.9 µM; in experiment [3] it was over 100 µM; in experiment [4], 49.6 µM; in experiment [5], 26.5 µM; in experiment [6] it was 19.7 µM. Besides, the results for the TGI in experiment [7], in [8] and in [9] were over 100 µM, over 100 µM and 42.1 µM, respectively.
Turning to `O=C(CO[N+](=O)[O-])OC/C=C/c1ccccc1`, the TGI in experiment [1] was 60.6 µM; in experiment [2], over 100 µM; in experiment [3] it was over 100 µM; in experiment [5], over 100 µM; in [6] it was over 100 µM; in experiment [7], over 100 µM. The TGI in [8], in [9] and in [10] was over 100 µM throughout.
